The test system of the experiment is P388 leukemia ip, CD2F1 mice, survival T/C. Put plainly: NCI In Vivo Anticancer Drug Screen. Data for tumor model P388 Leukemia (intraperitoneal) in CD2F1 (CDF1) mice. The settings on record: endpoint: median survival time, higher = longer survival. Put shortly:
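Mice carrying the transplanted tumor received test compound or vehicle. Survival was recorded in each group, and the value is the treated-group measurement divided by that of the vehicle-treated control group.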

[1] abbreviates: dose: 100.0 mg/kg/injection, schedule: Q04DX002 (ip), vehicle: saline with Tween-80.
[2] abbreviates: dose: 200.0 mg/kg/injection, schedule: Q04DX002 (ip), vehicle: saline with Tween-80.
Where [3] appears, read: dose: 400.0 mg/kg/injection, schedule: Q04DX002 (ip), vehicle: saline with Tween-80.
The mark [4] stands for this setting: dose: 60.0 mg/kg/injection, schedule: Q01DX005 (ip), vehicle: saline with Tween-80.
[5] abbreviates: dose: 120.0 mg/kg/injection, schedule: Q01DX005 (ip), vehicle: saline with Tween-80.
The mark [6] stands for this setting: dose: 240.0 mg/kg/injection, schedule: Q01DX005 (ip), vehicle: saline with Tween-80.
Where [7] appears, read: dose: 12.5 mg/kg/injection, schedule: Q01DX009 (ip), vehicle: saline with Tween-80.
Where [8] appears, read: dose: 25.0 mg/kg/injection, schedule: Q01DX009 (ip), vehicle: saline with Tween-80.
Where [9] appears, read: dose: 50.0 mg/kg/injection, schedule: Q01DX009 (ip), vehicle: saline with Tween-80.
Setting [10] is: dose: 50.0 mg/kg/injection, schedule: Q01DX005 (ip), vehicle: Klucel (hydroxypropylcellulose) (HPC).
The mark [11] stands for this setting: dose: 100.0 mg/kg/injection, schedule: Q01DX005 (ip), vehicle: Klucel (hydroxypropylcellulose) (HPC).
Where [12] appears, read: dose: 50.0 mg/kg/injection, schedule: Q01DX009 (ip), vehicle: Klucel (hydroxypropylcellulose) (HPC).
[13] abbreviates: dose: 100.0 mg/kg/injection, schedule: Q01DX009 (ip), vehicle: Klucel (hydroxypropylcellulose) (HPC).
Where [14] appears, read: dose: 50.0 mg/kg/injection, schedule: Q01DX005 (ip), vehicle: saline with Tween-80.
[15] abbreviates: dose: 100.0 mg/kg/injection, schedule: Q01DX005 (ip), vehicle: saline with Tween-80.
The mark [16] stands for this setting: dose: 200.0 mg/kg/injection, schedule: Q01DX005 (ip), vehicle: saline with Tween-80.
Setting [17] is: dose: 200.0 mg/kg/injection, schedule: Q01DX005 (ip), vehicle: Klucel (hydroxypropylcellulose) (HPC).
The mark [18] stands for this setting: dose: 200.0 mg/kg/injection, schedule: Q01DX009 (ip), vehicle: Klucel (hydroxypropylcellulose) (HPC).
[19] abbreviates: dose: 100.0 mg/kg/injection, schedule: Q01DX009 (ip), vehicle: saline with Tween-80.
The mark [20] stands for this setting: dose: 100.0 mg/kg/injection, schedule: Q04DX003 (ip), vehicle: saline with Tween-80.
[21] abbreviates: dose: 200.0 mg/kg/injection, schedule: Q04DX003 (ip), vehicle: saline with Tween-80.
[22] abbreviates: dose: 400.0 mg/kg/injection, schedule: Q04DX003 (ip), vehicle: saline with Tween-80.
The mark [23] stands for this setting: dose: 50.0 mg/kg/injection, schedule: Q01DX009 (ip), vehicle: saline.
Where [24] appears, read: dose: 100.0 mg/kg/injection, schedule: Q01DX009 (ip), vehicle: saline.
Setting [25] is: dose: 200.0 mg/kg/injection, schedule: Q01DX009 (ip), vehicle: saline.

Structures are written as SMILES. Where “and” joins values, the source holds several entries; their conditions need not be identical. Equal entries are not always repeated. Inconclusive results and toxic doses are left out.

Consider `O=C(/C=C/c1ccc(OCC2CO2)cc1)c1cc2ccccc2nc1Cl` (stereo unspecified), for which the T/C was 100 % of control under setting [1], 100 % of control under setting [2] and 100 % of control under setting [3].

For the compound `C/C(=N\N(C)C)C1=C(O)C(C(C)C)NC1=O` (stereo unspecified), the T/C runs as follows: under setting [4], 100 % of control; under setting [5], 105 % of control; under setting [6], 98 % of control.

Regarding `CC(=O)OCC1OC(N2C(=O)c3ccccc3S2(=O)=O)C(OC(C)=O)C(OC(C)=O)C1OC(C)=O` (stereo unspecified), the T/C runs as follows: under setting [1], 100 % of control; under setting [2], 91 % of control; under setting [3], 96 % of control.

As for `CNc1c(F)c(C#N)c(F)c(F)c1C#N`, the T/C reads like this: under setting [7], 96 % of control; under setting [8], 89 % of control; under setting [9], 100 % of control.

With `COC(=O)/C(=C1/OC(=O)C(c2ccc(Cl)cc2)=C1O)c1ccc(OC)cc1`, the T/C is 102 % of control under setting [10] and 94 % of control under setting [11].

For the compound `CCCCCCCCCCCCCOC(=O)CC(C(=O)OCCCCCCCCCCCCC)S(=O)(=O)O` (stereo unspecified), the T/C reads like this: under setting [12], 99 % of control; under setting [13], 95 % of control.

For `CCCOc1cc2c(cc1C(C)c1ccccc1)OCO2` (stereo unspecified), the T/C was 101 % of control under setting [14], 95 % of control under setting [15] and 96 % of control under setting [16].

For `CC(Cc1ccccc1)NC(=O)c1ccncc1` (stereo unspecified), the T/C was 103 % of control under setting [14], 102 % of control under setting [15] and 100 % of control under setting [16].

Consider `C=CCNC(=S)N/N=C(C)/C=C/c1ccc(OC)cc1`, for which the T/C is 100 % of control under setting [10], 96 % of control under setting [11] and 88 % of control under setting [17].

Turning to `CCN(CC)C(=O)C(F)C(F)(F)C(F)(F)C(F)C(=O)N(CC)CC` (stereo unspecified), the T/C reads like this: under setting [12], 108 % of control; under setting [13], 99 % of control; under setting [18], 98 % of control.

Turning to `Cc1ccc(NS(=O)(=O)c2ccc([N+](=O)[O-])cc2)cc1`, the T/C was 100 % of control under setting [19]; 100 % of control under setting [20]; 100 % of control under setting [21]; 90 % of control (dose: 400.0 mg/kg/injection, schedule: Q01DX009 (ip), vehicle: saline with Tween-80); 100 % of control under setting [22].

With `CC1CCC2(C)OC1OC2=O` (stereo unspecified), the T/C runs as follows: under setting [14], 97 % of control; under setting [15], 91 % of control; under setting [16], 87 % of control.

On to `CN(C(=S=O)c1ccccc1)c1ccccc1`, for which the T/C was 109 % of control under setting [23], 104 % of control under setting [24] and 106 % of control under setting [25].

On to `Cc1cc(NC(=O)Nc2ccc(Cl)cc2)no1`, for which the T/C under setting [20] was 100 % of control, the T/C under setting [21] is 95 % of control and the T/C under setting [22] was 100 % of control.

In the case of `CCOc1cccc2c(NCCCCCCCCNc3c4ccccc4nc4c(OCC)cccc34)c3ccccc3nc12`, the T/C by setting is: (dose: 3.75 mg/kg/injection, schedule: Q01DX009 (ip), vehicle: other) 166 % of control; (dose: 7.5 mg/kg/injection, schedule: Q01DX009 (ip), vehicle: other) 157 % of control.

As to `NC(=O)CCC(N)C(=O)O` (stereo unspecified), the T/C by setting is: under setting [7], 105 % of control; under setting [8], 119 % of control; under setting [9], 112 % of control; under setting [23], 113 % of control; under setting [24], 101 % of control and 116 % of control; under setting [25], 90 % of control and 109 % of control. The T/C (dose: 400.0 mg/kg/injection, schedule: Q01DX009 (ip), vehicle: saline) is 109 % of control.

Regarding `COc1cc(/C=N/NP(=S)(Oc2ccc(C(C)(C)C)cc2)Oc2ccc(C(C)(C)C)cc2)cc(OC)c1O`, the T/C is, setting by setting: under setting [12], 99 % of control; under setting [13], 99 % of control.

In the case of `c1ccc(OCCNCCOc2ccccc2)cc1`, the T/C (dose: 60.0 mg/kg/injection, schedule: Q01DX005 (ip), vehicle: Klucel (hydroxypropylcellulose) (HPC)) was 104 % of control; the T/C (dose: 120.0 mg/kg/injection, schedule: Q01DX005 (ip), vehicle: Klucel (hydroxypropylcellulose) (HPC)) was 98 % of control; the T/C (dose: 240.0 mg/kg/injection, schedule: Q01DX005 (ip), vehicle: Klucel (hydroxypropylcellulose) (HPC)) was 103 % of control.

For the compound `COc1cc(C2c3c(oc4ccccc4c3=O)Oc3oc4ccccc4c(=O)c32)cc(OC)c1O`, the T/C by setting is: (dose: 15.0 mg/kg/injection, schedule: Q01DX005 (ip), vehicle: saline with Tween-80) 92 % of control; (dose: 30.0 mg/kg/injection, schedule: Q01DX005 (ip), vehicle: saline with Tween-80) 96 % of control; under setting [4], 92 % of control; under setting [5], 95 % of control; under setting [6], 98 % of control.

Take `O=c1oc2c(Cl)cc(Cl)cc2cc1-c1nc2ccccc2[nH]1`: the T/C (dose: 25.0 mg/kg/injection, schedule: Q01DX005 (ip), vehicle: Klucel (hydroxypropylcellulose) (HPC)) is 92 % of control; the T/C under setting [10] is 92 % of control; the T/C under setting [11] was 92 % of control; the T/C under setting [17] is 92 % of control.

Turning to `CCOC(=O)NC1c2ccccc2Oc2c(C)cccc21` (stereo unspecified), the T/C is, setting by setting: under setting [14], 100 % of control; under setting [15], 100 % of control; under setting [16], 100 % of control.

Take `COc1ccc(CSC(=S)Nc2ccc(C)c(C)c2)cc1`: the T/C reads like this: (dose: 50.0 mg/kg/injection, schedule: Q01DX009 (ip), vehicle: suspension in saline) 99 % of control; (dose: 100.0 mg/kg/injection, schedule: Q01DX009 (ip), vehicle: suspension in saline) 100 % of control; (dose: 200.0 mg/kg/injection, schedule: Q01DX009 (ip), vehicle: suspension in saline) 99 % of control.

Regarding `COc1cccc2c1C(=O)c1c(O)c3c(c(O)c1C2=O)C[C@@](O)(C(C)=O)C[C@@H]3OC1CC(N)C(C(C)O)O1` (stereo partly specified), the T/C by setting is: (dose: 3.12 mg/kg/injection, schedule: Q04DX003 (ip), vehicle: distilled water + Tween-80) 117 % of control and 101 % of control; (dose: 6.25 mg/kg/injection, schedule: Q04DX003 (ip), vehicle: distilled water + Tween-80) 112 % of control and 92 % of control; (dose: 12.5 mg/kg/injection, schedule: Q04DX003 (ip), vehicle: distilled water + Tween-80) 114 % of control and 104 % of control; (dose: 25.0 mg/kg/injection, schedule: Q04DX003 (ip), vehicle: distilled water + Tween-80) 117 % of control and 111 % of control; (dose: 50.0 mg/kg/injection, schedule: Q04DX003 (ip), vehicle: distilled water + Tween-80) 117 % of control; (dose: 100.0 mg/kg/injection, schedule: Q04DX003 (ip), vehicle: distilled water + Tween-80) 119 % of control.

With `[Cu].[NH-]C1CCCC2CCC[N-]C12.[NH-]C1CCCC2CCC[N-]C12` (stereo unspecified), for the setting “dose: 12.5 mg/kg/injection, schedule: Q04DX002 (ip), vehicle: saline with Tween-80”, the T/C is 106 % of control.

`O=C1N(c2cccc(F)c2)C(=O)N1c1cccc(F)c1`: the T/C was 115 % of control under setting [9]; 100 % of control under setting [19]; 98 % of control (dose: 200.0 mg/kg/injection, schedule: Q01DX009 (ip), vehicle: saline with Tween-80).

For the compound `CC(=O)OC1CC(OC(C)=O)C2(C)CC3=C(O)C(=O)OC3CC(C)C12` (stereo unspecified), the T/C was 97 % of control under setting [1] and 101 % of control under setting [2].

`C1COCCCOCCCOCCCC2(CCCOCCCOC1)OCCO2`: the T/C was 102 % of control under setting [14], 102 % of control under setting [15] and 101 % of control under setting [16].

Consider `N#CCCSC(=S)N1CCCCC1`, for which the T/C is 104 % of control (dose: 25.0 mg/kg/injection, schedule: Q01DX009 (ip), vehicle: Klucel (hydroxypropylcellulose) (HPC)); 104 % of control and 87 % of control under setting [12]; 98 % of control and 101 % of control under setting [13]; 90 % of control and 93 % of control under setting [18]; 101 % of control (dose: 400.0 mg/kg/injection, schedule: Q01DX009 (ip), vehicle: Klucel (hydroxypropylcellulose) (HPC)).

The values above are taken from PubChem BioAssay AID330 (DTP/NCI, 2004).
